Assay results as given in patent US20160326142A1, “PYRAZOLE CARBOXAMIDE COMPOUNDS, COMPOSITIONS AND METHODS OF USE” (Genentech, Inc., priority 2012, published 2016).

Biological target: T1, ITK (Homo sapiens, UniProt Q08881)
T1 construct: purchased Invitrogen PV3875
T1 sequence (Q08881 1-620): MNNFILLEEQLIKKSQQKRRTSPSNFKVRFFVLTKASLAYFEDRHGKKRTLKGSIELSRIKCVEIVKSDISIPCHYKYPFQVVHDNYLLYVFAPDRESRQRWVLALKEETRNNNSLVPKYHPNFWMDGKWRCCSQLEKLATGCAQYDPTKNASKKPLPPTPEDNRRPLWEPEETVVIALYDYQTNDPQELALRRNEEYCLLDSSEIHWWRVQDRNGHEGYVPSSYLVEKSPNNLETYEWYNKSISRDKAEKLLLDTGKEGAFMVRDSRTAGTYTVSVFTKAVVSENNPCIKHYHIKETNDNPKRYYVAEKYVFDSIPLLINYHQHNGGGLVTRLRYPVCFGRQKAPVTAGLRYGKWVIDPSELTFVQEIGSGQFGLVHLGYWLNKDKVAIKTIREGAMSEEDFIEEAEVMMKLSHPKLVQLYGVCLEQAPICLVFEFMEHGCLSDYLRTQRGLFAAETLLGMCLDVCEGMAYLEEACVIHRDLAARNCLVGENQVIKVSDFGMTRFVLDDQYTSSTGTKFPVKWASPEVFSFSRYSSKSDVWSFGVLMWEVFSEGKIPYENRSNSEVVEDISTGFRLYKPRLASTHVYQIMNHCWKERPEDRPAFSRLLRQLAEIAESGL
Assay: ITK enzyme assay (Caliper or LCMS peptide phosphorylation)
Type: biochemical
Details: purified ITK (Invitrogen PV3875), 20 μM ATP, Ki by Morrison's quadratic equation
Outline: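 Purified human ITK peptide phosphorylation, quenched with EDTA (50 mM final) for Caliper LabChip separation or TCA (5% v/v final) for UPLC-MS/MS MRM quantification. Ki derived via Morrison tight-binding equation, corrected for competitive inhibition using ATP concentration relative to Km,app.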

Row | Ki [nM] | SMILES
1 | 16 | CC12Cc3c(C(=O)Nc4cnn(Cc5ccccc5)c4)n[nH]c3C1C2 (single isomer, unassigned) [Example 151a, N-(1-benzyl-1H-pyrazol-4-yl)-4a-methyl-4,4a,5,5a-tetrahydro-1H-cyclopropa[4,5]cyclopent a[1,2-c]pyrazole-3-carboxamide]
2 | 12 | CC12Cc3c(C(=O)Nc4cnn(Cc5ccccc5)c4)n[nH]c3C1C2 (single isomer, unassigned) [Example 151b, N-(1-benzyl-1H-pyrazol-4-yl)-4a-methyl-4,4a,5,5a-tetrahydro-1H-cyclopropa[4,5]cyclopent a[1,2-c]pyrazole-3-carboxamide]
3 | 42 | CC12Cc3c(C(=O)Nc4cnn(C(c5ccccc5)C5CCS(=O)(=O)CC5)c4)n[nH]c3C1C2 (single isomer, unassigned) [Example 152a, N-(1-((1,1-dioxidotetrahydro-2H-thiopyran-4-yl)(phenyl)methyl)-1H-pyrazol-4-yl)-4a-methyl-4,4a,5,5a-tetrahydro-1H-cyclopropa[4,5]cyclopenta[1,2-c]pyrazole-3-carboxamide]
4 | 3 | CC12Cc3c(C(=O)Nc4cnn(C(c5ccccc5)C5CCS(=O)(=O)CC5)c4)n[nH]c3C1C2 (single isomer, unassigned) [Example 152b, N-(1-((1,1-dioxidotetrahydro-2H-thiopyran-4-yl)(phenyl)methyl)-1H-pyrazol-4-yl)-4a-methyl-4,4a,5,5a-tetrahydro-1H-cyclopropa[4,5]cyclopenta[1,2-c]pyrazole-3-carboxamide]
5 | 2 | CC12Cc3c(C(=O)Nc4cnn(C(c5ccccc5)C5CCS(=O)(=O)CC5)c4)n[nH]c3C1C2 (single isomer, unassigned) [Example 152c, N-(1-((1,1-dioxidotetrahydro-2H-thiopyran-4-yl)(phenyl)methyl)-1H-pyrazol-4-yl)-4a-methyl-4,4a,5,5a-tetrahydro-1H-cyclopropa[4,5]cyclopenta[1,2-c]pyrazole-3-carboxamide]
6 | 15 | CC12Cc3c(C(=O)Nc4cnn(C(c5ccccc5)C5CCS(=O)(=O)CC5)c4)n[nH]c3C1C2 (single isomer, unassigned) [Example 152d, N-(1-((1,1-dioxidotetrahydro-2H-thiopyran-4-yl)(phenyl)methyl)-1H-pyrazol-4-yl)-4a-methyl-4,4a,5,5a-tetrahydro-1H-cyclopropa[4,5]cyclopenta[1,2-c]pyrazole-3-carboxamide]
7 | 58 | CC12CCc3c(C(=O)Nc4cnn(Cc5ccccc5)c4)n[nH]c3C1C2 (single isomer, unassigned) [Example 153a, N-(1-benzyl-1H-pyrazol-4-yl)-5a-methyl-1,4,5,5a,6,6a-hexahydrocyclopropa[g]indazole-3-c arboxamide]
8 | 15 | CC12CCc3c(C(=O)Nc4cnn(Cc5ccccc5)c4)n[nH]c3C1C2 (single isomer, unassigned) [Example 153b, N-(1-benzyl-1H-pyrazol-4-yl)-5a-methyl-1,4,5,5a,6,6a-hexahydrocyclopropa[g]indazole-3-c arboxamide]
9 | 0.1 | CC1(C)CCc2c(C(=O)Nc3cnn(C(c4cccc(S(C)(=O)=O)c4)C4CCOCC4)c3)n[nH]c2C1 (single isomer, unassigned) [Example 154a, 6,6-dimethyl-N-(1-((3-(methylsulfonyl)phenyl)(tetrahydro-2H-pyran-4-yl)methyl)-1H-pyrazol-4-yl)-4,5,6,7-tetrahydro-1H-indazole-3-carboxamide]
10 | 1 | CC1(C)CCc2c(C(=O)Nc3cnn(C(c4cccc(S(C)(=O)=O)c4)C4CCOCC4)c3)n[nH]c2C1 (single isomer, unassigned) [Example 154b, 6,6-dimethyl-N-(1-((3-(methylsulfonyl)phenyl)(tetrahydro-2H-pyran-4-yl)methyl)-1H-pyrazol-4-yl)-4,5,6,7-tetrahydro-1H-indazole-3-carboxamide]

The next lines start with the compound.

Row | SMILES | Ki [nM]
11 | CC1(C)CCc2c(C(=O)Nc3cnn(C(c4cccnc4)C4CC[S+]([O-])CC4)c3)n[nH]c2C1 (single isomer, unassigned) [Example 147b, 6,6-dimethyl-N-(1-((1-oxidotetrahydro-2H-thiopyran-4-yl)(pyridin-3-yl)methyl)-1H-pyrazol-4-yl)-4,5,6,7-tetrahydro-1H-indazole-3-carboxamide] | 4
12 | CC1(C)CCc2c(C(=O)Nc3cnn(C(c4cccnc4)C4CC[S+]([O-])CC4)c3)n[nH]c2C1 (single isomer, unassigned) [Example 147c, 6,6-dimethyl-N-(1-((1-oxidotetrahydro-2H-thiopyran-4-yl)(pyridin-3-yl)methyl)-1H-pyrazol-4-yl)-4,5,6,7-tetrahydro-1H-indazole-3-carboxamide] | 7
13 | CC1(C)CCc2c(C(=O)Nc3cnn(C(c4cccnc4)C4CC[S+]([O-])CC4)c3)n[nH]c2C1 (single isomer, unassigned) [Example 147d, 6,6-dimethyl-N-(1-((1-oxidotetrahydro-2H-thiopyran-4-yl)(pyridin-3-yl)methyl)-1H-pyrazol-4-yl)-4,5,6,7-tetrahydro-1H-indazole-3-carboxamide] | 0.6
14 | O=C1CCC2(CCc3c(C(=O)Nc4cnn(Cc5ccccc5)c4)n[nH]c3C2)N1 (single isomer, unassigned) [Example 148a, N-(1-benzyl-1H-pyrazol-4-yl)-5′-oxo-1,4,5,7-tetrahydrospiro[indazole-6,2′-pyrrolidine]-3-carboxamide] | > 400
15 | O=C1CCC2(CCc3c(C(=O)Nc4cnn(Cc5ccccc5)c4)n[nH]c3C2)N1 (single isomer, unassigned) [Example 148b, N-(1-benzyl-1H-pyrazol-4-yl)-5′-oxo-1,4,5,7-tetrahydrospiro[indazole-6,2′-pyrrolidine]-3-carboxamide] | > 400
16 | CC1(N2CCOCC2)CCc2c(C(=O)Nc3cnn(Cc4ccccc4)c3)n[nH]c2C1 (single isomer, unassigned) [Example 149a, N-(1-benzyl-1H-pyrazol-4-yl)-6-methyl-6-morpholino-4,5,6,7-tetrahydro-1H-indazole-3-carboxamide] | > 400
17 | CC1(N2CCOCC2)CCc2c(C(=O)Nc3cnn(Cc4ccccc4)c3)n[nH]c2C1 (single isomer, unassigned) [Example 149b, N-(1-benzyl-1H-pyrazol-4-yl)-6-methyl-6-morpholino-4,5,6,7-tetrahydro-1H-indazole-3-carboxamide] | > 400
18 | CC12Cc3[nH]nc(C(=O)Nc4cnn(Cc5ccccc5)c4)c3C1C2 (single isomer, unassigned) [Example 150a, N-(1-benzyl-1H-pyrazol-4-yl)-4a-methyl-3b,4,4a,5-tetrahydro-1H-cyclopropa[3,4]cyclopent a[1,2-c]pyrazole-3-carboxamide] | 130
19 | CC12Cc3[nH]nc(C(=O)Nc4cnn(Cc5ccccc5)c4)c3C1C2 (single isomer, unassigned) [Example 150b, N-(1-benzyl-1H-pyrazol-4-yl)-4a-methyl-3b,4,4a,5-tetrahydro-1H-cyclopropa[3,4]cyclopent a[1,2-c]pyrazole-3-carboxamide] | 32
20 | N#Cc1cccc(Cn2cc(NC(=O)c3n[nH]c4c3CCCC4)cn2)c1 [Example 3, N-(1-(3-cyanobenzyl)-1H-pyrazol-4-yl)-4,5,6,7-tetrahydro-1H-indazole-3-carboxamide] | 31
21 | O=C(Nc1cnn(Cc2ccccc2)c1)c1n[nH]c2c1CC1(CC2)COC1 [Example 13, N-(1-benzyl-1H-pyrazol-4-yl)-1,4,6,7-tetrahydrospiro[indazole-5,3′-oxetane]-3-carboxamide] | 240
22 | O=C(Nc1cnn(Cc2ccccc2)c1)c1n[nH]c2c1CC(F)(F)CC2 [Example 17, N-(1-benzyl-1H-pyrazol-4-yl)-5,5-difluoro-4,5,6,7-tetrahydro-1H-indazole-3-carboxamide] | 36
23 | N#Cc1cccc(Cn2cc(NC(=O)c3n[nH]c4c3CCC4)cn2)c1 [Example 20, N-(1-(3-cyanobenzyl)-1H-pyrazol-4-yl)-1,4,5,6-tetrahydrocyclopenta[c]pyrazole-3-carboxamide] | 89
24 | CC1(C)Cc2[nH]nc(C(=O)Nc3cnn(Cc4ccccc4)c3)c2C1 [Example 21, N-(1-benzyl-1H-pyrazol-4-yl)-5,5-dimethyl-1,4,5,6-tetrahydrocyclopenta[c]pyrazole-3-carb oxamide] | 7.4
25 | O=C(Nc1cnn(Cc2ccccc2)c1)c1n[nH]c2c1C1CC(C2)C1 [Example 31, N-(1-benzyl-1H-pyrazol-4-yl)-4,5,6,7-tetrahydro-1H-4,6-methanoindazole-3-carboxamide] | 260
26 | O=C(Nc1cnn(Cc2ccccc2)c1)c1n[nH]c2c1CC1CC2C1 [Example 32, N-(1-benzyl-1H-pyrazol-4-yl)-4,5,6,7-tetrahydro-1H-5,7-methanoindazole-3-carboxamide] | 38
27 | CC1(O)CCc2c(C(=O)Nc3cnn(Cc4ccccc4)c3)n[nH]c2C1 (stereo not drawn) [Example 51b, N-(1-benzyl-1H-pyrazol-4-yl)-6-hydroxy-6-methyl-4,5,6,7-tetrahydro-1H-indazole-3-carboxamide] | 860
